The values that follow come from publication PMC7827406, “Structure–Activity Relationship (SAR) Study of Spautin-1 to Entail the Discovery of Novel NEK4 Inhibitors” (International Journal of Molecular Sciences, 2021).

Like-named read-outs stand apart in the source and are kept apart here.

Common to all, as to assay: biochemical
Common to all, as to set-up: Eurofins KinaseProfiler full panel at Km ATP, residual kinase activity (%) relative to DMSO

For test [1], the target named is T1, Abl(T315I)(h) (Homo sapiens, UniProt P00519, T315I).
T1 construct: gene ABL1
The procedure, abridged: (§1)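 Compounds screened at 10 µM in radiometric kinase activity assays at Km ATP, reported as remaining kinase activity (%). A KINOMEscan competition-binding screen at 10 µM measured DNA-tagged kinase retained on immobilized active-site ligand by qPCR.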

Test [2] deals with CDKL1(h) (Homo sapiens, UniProt Q00532). The gist of the method:
as §1

The target of test [3] is CLK1(h) (Homo sapiens, UniProt P49759). The gist of the method:
as §1

Test [4] addresses CLK2(h) (Homo sapiens, UniProt P49760). The gist of the method:
as §1

The target in test [5] is DAPK1(h) (Homo sapiens, UniProt P53355). The gist of the method:
as §1

Test [6] deals with FGFR1(h) (Homo sapiens, UniProt P11362). The gist of the method: as §1
FGFR1(h), sequence (P11362 whole entry): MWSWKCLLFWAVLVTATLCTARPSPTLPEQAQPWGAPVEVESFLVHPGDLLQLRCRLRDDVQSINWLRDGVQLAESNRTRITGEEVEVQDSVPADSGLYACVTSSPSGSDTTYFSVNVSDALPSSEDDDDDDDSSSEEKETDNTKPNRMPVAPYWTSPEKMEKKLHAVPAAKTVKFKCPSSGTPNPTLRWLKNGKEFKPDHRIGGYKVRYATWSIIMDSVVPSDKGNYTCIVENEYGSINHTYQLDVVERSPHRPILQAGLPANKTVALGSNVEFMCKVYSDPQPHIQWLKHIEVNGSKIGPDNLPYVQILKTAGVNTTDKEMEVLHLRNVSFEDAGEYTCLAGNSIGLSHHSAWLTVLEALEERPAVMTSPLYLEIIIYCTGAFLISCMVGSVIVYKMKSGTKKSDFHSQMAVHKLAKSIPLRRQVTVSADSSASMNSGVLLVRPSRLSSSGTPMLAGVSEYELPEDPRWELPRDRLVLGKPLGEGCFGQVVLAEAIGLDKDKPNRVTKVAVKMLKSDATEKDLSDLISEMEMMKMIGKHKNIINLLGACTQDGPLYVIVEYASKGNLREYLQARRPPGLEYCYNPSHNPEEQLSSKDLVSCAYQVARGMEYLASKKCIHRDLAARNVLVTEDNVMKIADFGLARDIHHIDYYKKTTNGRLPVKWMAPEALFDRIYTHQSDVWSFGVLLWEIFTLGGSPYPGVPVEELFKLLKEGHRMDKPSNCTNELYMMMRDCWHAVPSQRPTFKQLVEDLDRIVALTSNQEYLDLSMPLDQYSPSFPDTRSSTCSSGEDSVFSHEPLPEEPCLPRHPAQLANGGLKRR
Test [7] has as its target T2, Fms(h) (Homo sapiens, UniProt P07333).
T2 construct: gene CSF1R
The procedure, abridged:
as §1

Test [8] concerns the target T3, MAK(h) (Homo sapiens, UniProt P20794).
T3 sequence (P20794 1-623): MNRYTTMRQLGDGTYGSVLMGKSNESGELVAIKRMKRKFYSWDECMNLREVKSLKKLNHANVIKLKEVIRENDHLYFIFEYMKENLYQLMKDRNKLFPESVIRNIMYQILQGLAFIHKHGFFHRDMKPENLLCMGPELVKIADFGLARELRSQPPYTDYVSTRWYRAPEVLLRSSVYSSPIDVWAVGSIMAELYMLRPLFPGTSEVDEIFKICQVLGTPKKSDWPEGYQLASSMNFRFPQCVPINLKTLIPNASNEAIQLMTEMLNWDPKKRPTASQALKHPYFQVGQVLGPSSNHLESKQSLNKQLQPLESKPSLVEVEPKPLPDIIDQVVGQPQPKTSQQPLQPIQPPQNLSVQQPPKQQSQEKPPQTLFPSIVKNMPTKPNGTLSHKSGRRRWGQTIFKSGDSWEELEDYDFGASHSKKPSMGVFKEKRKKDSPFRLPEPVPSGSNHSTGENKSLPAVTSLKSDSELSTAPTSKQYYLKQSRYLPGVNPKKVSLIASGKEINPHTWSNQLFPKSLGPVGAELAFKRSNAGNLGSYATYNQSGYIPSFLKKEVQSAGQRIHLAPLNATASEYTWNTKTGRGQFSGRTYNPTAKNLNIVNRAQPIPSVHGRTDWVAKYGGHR
The gist of the method: as §1

In test [9] the target is T4, MEK1(h) (Homo sapiens, UniProt Q02750).
T4 construct: gene MAP2K1
T4 sequence (Q02750 whole entry): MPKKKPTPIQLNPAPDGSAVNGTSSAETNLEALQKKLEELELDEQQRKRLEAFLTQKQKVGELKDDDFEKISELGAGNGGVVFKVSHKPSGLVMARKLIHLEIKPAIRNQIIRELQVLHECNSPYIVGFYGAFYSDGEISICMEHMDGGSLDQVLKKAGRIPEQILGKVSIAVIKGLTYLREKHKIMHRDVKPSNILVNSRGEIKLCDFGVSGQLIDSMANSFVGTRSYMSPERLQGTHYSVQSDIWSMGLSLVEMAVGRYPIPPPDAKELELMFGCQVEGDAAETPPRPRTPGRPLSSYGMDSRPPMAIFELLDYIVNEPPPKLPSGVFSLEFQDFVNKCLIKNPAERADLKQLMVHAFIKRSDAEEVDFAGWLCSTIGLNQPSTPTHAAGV
The procedure, abridged:
as §1

For test [10], the target named is T5, PRKG2(h) (Homo sapiens, UniProt Q13237).
T5 sequence (Q13237 1-762): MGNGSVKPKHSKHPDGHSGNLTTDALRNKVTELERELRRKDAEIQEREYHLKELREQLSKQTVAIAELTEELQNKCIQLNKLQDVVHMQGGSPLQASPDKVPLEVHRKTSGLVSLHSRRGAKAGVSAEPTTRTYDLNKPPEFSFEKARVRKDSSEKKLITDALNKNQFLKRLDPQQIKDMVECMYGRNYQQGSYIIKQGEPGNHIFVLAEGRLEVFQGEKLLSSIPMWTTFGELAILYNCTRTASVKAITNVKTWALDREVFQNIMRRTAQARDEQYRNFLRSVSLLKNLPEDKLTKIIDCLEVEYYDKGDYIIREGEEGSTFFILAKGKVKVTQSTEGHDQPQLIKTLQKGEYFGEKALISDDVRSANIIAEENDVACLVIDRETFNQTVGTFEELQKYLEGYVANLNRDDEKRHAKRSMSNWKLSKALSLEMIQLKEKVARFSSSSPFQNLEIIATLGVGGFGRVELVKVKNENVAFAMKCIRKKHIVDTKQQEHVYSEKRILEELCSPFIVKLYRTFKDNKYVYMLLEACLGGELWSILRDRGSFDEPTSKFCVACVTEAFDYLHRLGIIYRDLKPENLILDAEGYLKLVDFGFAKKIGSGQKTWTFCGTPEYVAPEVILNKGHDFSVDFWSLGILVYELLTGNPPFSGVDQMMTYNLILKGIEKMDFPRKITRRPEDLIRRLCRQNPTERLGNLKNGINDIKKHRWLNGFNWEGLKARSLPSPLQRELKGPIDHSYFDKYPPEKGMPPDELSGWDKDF
The gist of the method:
as §1

The target in test [11] is STK32B(h) (Homo sapiens, UniProt Q9NY57). The gist of the method: as §1
STK32B(h), sequence (Q9NY57 whole entry): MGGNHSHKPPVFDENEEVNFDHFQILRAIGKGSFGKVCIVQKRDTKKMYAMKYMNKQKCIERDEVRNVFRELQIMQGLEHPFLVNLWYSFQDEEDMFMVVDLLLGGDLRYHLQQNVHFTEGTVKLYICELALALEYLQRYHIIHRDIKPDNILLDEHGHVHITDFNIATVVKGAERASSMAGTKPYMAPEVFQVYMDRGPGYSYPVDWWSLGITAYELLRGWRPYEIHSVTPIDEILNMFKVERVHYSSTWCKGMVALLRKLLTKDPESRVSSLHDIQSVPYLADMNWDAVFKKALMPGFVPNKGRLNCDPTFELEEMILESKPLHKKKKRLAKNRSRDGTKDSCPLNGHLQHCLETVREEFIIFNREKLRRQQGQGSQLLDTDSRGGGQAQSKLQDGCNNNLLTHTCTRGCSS
Where [12] appears, read: read-out: Residual activity (%) Spautin-1 5aa.
Setting [13] is: read-out: Residual activity (%) 5as.
Setting [14] is: read-out: Residual activity (%) 5at.
Setting [15] is: read-out: Residual activity (%) 5ay.

DAPK1(h), sequence (P53355 whole entry): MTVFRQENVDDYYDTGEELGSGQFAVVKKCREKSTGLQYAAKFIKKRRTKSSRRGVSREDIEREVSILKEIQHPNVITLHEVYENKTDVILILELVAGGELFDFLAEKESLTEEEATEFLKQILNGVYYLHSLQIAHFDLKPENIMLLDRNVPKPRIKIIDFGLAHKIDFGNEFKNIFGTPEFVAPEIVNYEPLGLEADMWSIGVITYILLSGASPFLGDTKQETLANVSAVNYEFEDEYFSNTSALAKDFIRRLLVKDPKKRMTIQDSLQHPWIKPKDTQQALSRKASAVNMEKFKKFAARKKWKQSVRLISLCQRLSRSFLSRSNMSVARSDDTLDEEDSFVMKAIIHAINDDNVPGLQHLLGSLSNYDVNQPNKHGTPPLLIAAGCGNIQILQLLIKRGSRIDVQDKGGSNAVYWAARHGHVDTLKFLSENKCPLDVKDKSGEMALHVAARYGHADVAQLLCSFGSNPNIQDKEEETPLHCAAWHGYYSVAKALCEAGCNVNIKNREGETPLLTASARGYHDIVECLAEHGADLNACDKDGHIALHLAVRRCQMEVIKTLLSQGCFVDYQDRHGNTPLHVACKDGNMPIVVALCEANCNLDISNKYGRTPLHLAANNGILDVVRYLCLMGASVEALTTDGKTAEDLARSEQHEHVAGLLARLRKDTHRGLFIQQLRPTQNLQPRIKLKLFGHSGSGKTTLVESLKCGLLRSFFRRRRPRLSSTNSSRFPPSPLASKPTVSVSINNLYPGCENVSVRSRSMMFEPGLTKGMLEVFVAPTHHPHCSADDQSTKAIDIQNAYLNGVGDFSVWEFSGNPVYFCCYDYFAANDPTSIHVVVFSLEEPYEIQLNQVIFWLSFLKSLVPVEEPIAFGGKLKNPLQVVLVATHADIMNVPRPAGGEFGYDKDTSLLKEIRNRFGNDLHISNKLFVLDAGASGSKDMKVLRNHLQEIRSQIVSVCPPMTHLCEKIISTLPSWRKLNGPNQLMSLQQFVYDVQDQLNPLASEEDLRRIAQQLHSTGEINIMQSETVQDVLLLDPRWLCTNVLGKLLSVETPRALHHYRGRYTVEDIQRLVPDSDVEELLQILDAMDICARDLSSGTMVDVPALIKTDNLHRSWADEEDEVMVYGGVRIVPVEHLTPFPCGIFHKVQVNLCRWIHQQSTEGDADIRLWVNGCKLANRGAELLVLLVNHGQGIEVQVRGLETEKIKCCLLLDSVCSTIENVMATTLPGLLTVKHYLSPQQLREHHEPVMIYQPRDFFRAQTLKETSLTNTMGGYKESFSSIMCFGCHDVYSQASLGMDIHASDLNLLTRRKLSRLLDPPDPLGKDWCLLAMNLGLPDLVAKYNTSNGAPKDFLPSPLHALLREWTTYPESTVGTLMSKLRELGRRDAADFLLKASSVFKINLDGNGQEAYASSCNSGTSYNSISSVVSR
CLK1(h), sequence (P49759 whole entry): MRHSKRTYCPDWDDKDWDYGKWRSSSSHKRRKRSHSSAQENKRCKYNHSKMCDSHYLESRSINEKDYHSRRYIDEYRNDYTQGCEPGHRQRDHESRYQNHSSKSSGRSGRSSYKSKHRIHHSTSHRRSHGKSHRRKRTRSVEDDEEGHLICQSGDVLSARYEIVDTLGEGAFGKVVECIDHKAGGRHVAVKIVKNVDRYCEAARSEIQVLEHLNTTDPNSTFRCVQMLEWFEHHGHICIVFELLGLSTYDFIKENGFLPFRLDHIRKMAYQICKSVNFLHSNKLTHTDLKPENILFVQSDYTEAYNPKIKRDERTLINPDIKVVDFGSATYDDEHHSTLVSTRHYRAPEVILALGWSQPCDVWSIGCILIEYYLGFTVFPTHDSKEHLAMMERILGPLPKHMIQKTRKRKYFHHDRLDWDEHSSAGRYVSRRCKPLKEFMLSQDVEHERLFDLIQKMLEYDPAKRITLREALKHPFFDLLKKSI
CDKL1(h), sequence (Q00532 whole entry): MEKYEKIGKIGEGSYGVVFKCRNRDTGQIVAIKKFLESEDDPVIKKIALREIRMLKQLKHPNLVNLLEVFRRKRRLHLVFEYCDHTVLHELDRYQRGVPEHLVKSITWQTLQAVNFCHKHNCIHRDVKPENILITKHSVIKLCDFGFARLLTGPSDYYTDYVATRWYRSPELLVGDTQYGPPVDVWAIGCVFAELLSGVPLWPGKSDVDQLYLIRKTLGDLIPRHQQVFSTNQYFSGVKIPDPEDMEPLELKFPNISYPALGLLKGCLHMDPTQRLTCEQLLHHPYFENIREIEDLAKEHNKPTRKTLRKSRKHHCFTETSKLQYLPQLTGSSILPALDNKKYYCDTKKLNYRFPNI
CLK2(h), sequence (P49760 whole entry): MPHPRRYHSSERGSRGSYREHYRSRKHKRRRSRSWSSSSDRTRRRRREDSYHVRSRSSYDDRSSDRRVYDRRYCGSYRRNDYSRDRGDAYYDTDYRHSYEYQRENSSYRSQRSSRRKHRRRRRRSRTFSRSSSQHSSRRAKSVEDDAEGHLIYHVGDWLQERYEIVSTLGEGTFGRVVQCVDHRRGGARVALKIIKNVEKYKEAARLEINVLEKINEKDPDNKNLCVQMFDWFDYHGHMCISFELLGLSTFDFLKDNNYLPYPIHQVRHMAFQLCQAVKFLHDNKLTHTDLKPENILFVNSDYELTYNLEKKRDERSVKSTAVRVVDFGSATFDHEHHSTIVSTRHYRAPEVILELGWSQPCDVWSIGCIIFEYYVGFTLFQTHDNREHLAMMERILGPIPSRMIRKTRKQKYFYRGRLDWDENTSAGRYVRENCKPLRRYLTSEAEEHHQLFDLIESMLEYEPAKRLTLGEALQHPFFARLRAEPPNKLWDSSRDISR

For `Fc1ccc(CNc2ncnc3ccc(F)cc23)cc1` [5aa, 6-Fluoro-N-(4-fluorobenzyl)-4-Quinazolinamine], the remaining activity at 10 µM amounted to 73% in test [1] (setting [12]); 94% in [2] (setting [12]); 23% in test [3] (setting [12]); 47% in test [4] (setting [12]); 102% in test [5] (setting [12]); 91% in test [6] (setting [12]). The remaining activity at 10 µM in [7] (setting [12]) turned out to be 94%; in [8] (setting [12]), 89%; in test [9] (setting [12]), 91%; in test [10] (setting [12]) it was 103%; in test [11] (setting [12]), 95%.
As to `Fc1ccc(CCNc2ncnc3ccc(F)cc23)cc1` [5as, 6-Fluoro-N-[2-(4-Fluorophenyl)Ethyl]-4-Quinazolinamine], the remaining activity at 10 µM in test [1] (setting [13]) was determined as 101%; in test [2] (setting [13]), 111%; in test [3] (setting [13]) it was 28%; in [4] (setting [13]), 53%; in test [5] (setting [13]), 90%; in test [6] (setting [13]), 105%. In addition, the remaining activity at 10 µM in [7] (setting [13]) came to 72%; in test [8] (setting [13]), 77%; in [9] (setting [13]) it was 84%; in [10] (setting [13]) it was 96%; in test [11] (setting [13]), 92%.
Consider `Fc1ccc2ncnc(NCCc3ccc(Cl)cc3)c2c1` [5at, N-[2-(4-Chlorophenyl)Ethyl]-6-Fluoro-4-Quinazolinamine], for which the remaining activity at 10 µM in test [1] (setting [14]) was 80%; in [2] (setting [14]), 111%; in test [3] (setting [14]) it was 28%; in [4] (setting [14]) it was 60%; in test [5] (setting [14]) it was 89%; in test [6] (setting [14]), 123%. Besides, the remaining activity at 10 µM in [7] (setting [14]) was found to be 64%; in [8] (setting [14]) it was 76%; in test [9] (setting [14]), 73%; in test [10] (setting [14]), 79%; in test [11] (setting [14]) it was 97%.
Turning to `COc1ccc2ncnc(Nc3cccc(F)c3)c2c1` [5ay, N-(3-Fluorophenyl)-6-Methoxy-4-Quinazolinamine], the remaining activity at 10 µM is 91% in test [1] (setting [15]); 119% in test [2] (setting [15]); 14% in test [3] (setting [15]); 43% in [4] (setting [15]); 95% in test [5] (setting [15]); 81% in [6] (setting [15]). Besides, the remaining activity at 10 µM in test [7] (setting [15]) is 90%; in test [8] (setting [15]), 74%; in test [9] (setting [15]), 93%; in test [10] (setting [15]) it was 113%; in test [11] (setting [15]) it was 93%.
